What all share (assay type): functional, organism-based
In experiment [1] the test system is Human immunodeficiency virus. The experiment can be described thus: Antiviral activity against Human immunodeficiency virus. To be noted: Human immunodeficiency virus 1.
The test system of another experiment is Hepatitis B virus. In words: Antiviral activity against Hepatitis B virus.
Experiment [2] deals with Human immunodeficiency virus. The experiment can be described thus: Antiviral activity against Human immunodeficiency virus infected in MT4 cell incubated for 72 hrs by CPE based microscopic assay. To be noted: Human immunodeficiency virus 1, MT4, 72 h.

As a reminder, the EC50 is the concentration at which the effect is half-maximal. Lower therefore signals greater potency. As for `Nc1ncnc2c1ncn2[C@@H]1CC[C@H](CO)O1`, the concentration for a half-maximal effect (EC50) in experiment [1] amounted to 8.2 µM; in the experiment on Hepatitis B virus it was 6 µM.
As to `Nc1ncnc2c1ncn2[C@@H]1C=C[C@H](CO)O1`, the EC50 in experiment [1] is 0.38 µM; with Hepatitis B virus it was 1.2 µM.
In experiment [2], `Cc1cn(C2CC(N=[N+]=[N-])C(CO[PH](=O)OC3CCC4(C)C(C=CC5C4CCC4(C)C(C(C)CCCC(C)C)CCC54)C3)O2)c(=O)[nH]c1=O` (configuration not stated) returned an EC50 of 0.001 µM.
Turning to `Nc1ncnc2c1ncn2[C@H]1O[C@@H](CO)[C@H](O)C1(F)F`, the EC50 in experiment [1] stood at 3.4 µM; in the experiment on Hepatitis B virus it was 20 µM.

The record behind these values is ChEMBL document CHEMBL5241061, “Advance of structural modification of nucleosides scaffold” (Eur J Med Chem, 2021).
